In article PMC8185113, “Critical angle reflection imaging for quantification of molecular interactions on glass surface” (Nature Communications, 2021):

What was measured:
[1] = biological target: T1, nicotinic acetylcholine receptor (nAChR), human α4β2 receptor on SH-EP1_α4β2 cells (Homo sapiens, UniProt P17787+P43681); experiment: acetylcholine binding to nAChR on fixed SH-EP1_α4β2 cells measured by CAR imaging; settings: 61.6 degrees, average of seven cells, global fit
T1 construct: expressed in transfected cells; host or cells: SH-EP1 cells (SH-EP1_α4β2), gift from Dr. Jie Wu
Protocol: (§1) Most drugs are small molecules, and over 50% drug targets are membrane proteins.
(§2) CAR angle was set at 61.6 degrees with a sensitivity of 112 RIU^−1. The binding kinetic curves (black) were obtained by averaging the CAR response of seven cells and globally fitted to the first-order kinetics (red) (see Supplementary Figure 12b for the response of individual cells).
(§3) All the cell-related experiments including CAR, SPR, transmitted and fluorescence measurements (Figs. 4–6) were performed on an objective-based SPR microscope setup, which consisted of an inverted microscope (Olympus IX-81) and a ×60 (NA 1.49) oil-immersion objective. The light source for CAR and SPR imaging was a superluminescent light-emitting diode (SLED) (SLD-260-HP-TOW-PD-670, Superlum, Ireland) with 670 nm wavelength and 1 mW power set by a SLED current driver (PILOT4-AC, Superlum). The SLED was mounted on a translation stage (PT3, Thorlabs) with a motorized actuator (Z825B, Thorlabs) for adjusting incident angle. […] The light source for transmitted and fluorescence imaging were the stocking halogen and mercury lamp of the microscope, respectively. The excitation and emission wavelength used for imaging Alexa Fluor 488 labelled WGA were 488 nm and 518 nm, respectively, and the power density on the sample was ~0.1 mW/cm^2. A CMOS camera (ORCA-Flash 4.0, Hamamatsu) was used to record the images. […]

[2] = test system: wild-type SH-EP1 cells; experiment: control: acetylcholine on wild-type SH-EP1 cells (no nAChR) measured by CAR; type: binding; settings: wild-type SH-EP1 cells without nAChR, 50, 100, 200 nM
Protocol: as §1, §2, §3

[3] = biological target: T1, nicotinic acetylcholine receptor (nAChR), human α4β2 receptor on SH-EP1_α4β2 cells; experiment: acetylcholine binding to nAChR on SH-EP1_α4β2 cells measured by SPR; settings: SH-EP1_α4β2 cells on gold; 50, 100, 200 nM
Protocol: as §1, §2, §3

T1 sequence (P43681 29-627 limits assumed): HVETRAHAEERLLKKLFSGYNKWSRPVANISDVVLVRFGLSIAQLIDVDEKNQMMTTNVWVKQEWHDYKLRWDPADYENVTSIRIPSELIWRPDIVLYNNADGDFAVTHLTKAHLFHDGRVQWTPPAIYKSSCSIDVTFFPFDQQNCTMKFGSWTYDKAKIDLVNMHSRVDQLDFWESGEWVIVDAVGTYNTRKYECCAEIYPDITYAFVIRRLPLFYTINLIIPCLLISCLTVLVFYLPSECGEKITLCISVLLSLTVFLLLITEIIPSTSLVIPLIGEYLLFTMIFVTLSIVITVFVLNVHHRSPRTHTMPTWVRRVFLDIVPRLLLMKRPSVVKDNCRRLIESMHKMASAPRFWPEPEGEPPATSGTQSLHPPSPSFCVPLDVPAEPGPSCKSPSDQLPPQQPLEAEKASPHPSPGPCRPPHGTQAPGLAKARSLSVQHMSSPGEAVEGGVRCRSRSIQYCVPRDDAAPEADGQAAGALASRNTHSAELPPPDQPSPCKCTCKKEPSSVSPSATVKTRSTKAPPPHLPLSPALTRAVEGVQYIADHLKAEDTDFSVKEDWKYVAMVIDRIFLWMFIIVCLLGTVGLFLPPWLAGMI
T1 sequence (P17787 26-502): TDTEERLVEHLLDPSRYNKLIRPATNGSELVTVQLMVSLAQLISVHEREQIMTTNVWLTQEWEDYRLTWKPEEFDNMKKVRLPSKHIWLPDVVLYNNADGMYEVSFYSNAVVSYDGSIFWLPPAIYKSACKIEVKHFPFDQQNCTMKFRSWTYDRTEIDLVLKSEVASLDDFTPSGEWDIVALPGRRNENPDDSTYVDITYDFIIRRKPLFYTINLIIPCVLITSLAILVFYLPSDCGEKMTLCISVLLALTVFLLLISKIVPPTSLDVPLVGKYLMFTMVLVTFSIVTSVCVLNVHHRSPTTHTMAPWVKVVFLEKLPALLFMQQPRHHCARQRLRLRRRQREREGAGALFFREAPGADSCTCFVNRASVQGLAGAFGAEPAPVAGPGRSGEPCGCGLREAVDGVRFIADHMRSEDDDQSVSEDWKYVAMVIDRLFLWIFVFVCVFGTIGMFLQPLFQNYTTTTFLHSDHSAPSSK

CC(=O)OCC[N+](C)(C)C [acetylcholine]
kd [1]: (1.5±0.1)×10^-3 s^-1
CAR response [2]: negligible
CAR response ([2]; listed as Acetylcholine): No clear CAR response
SPR response [3]: no measurable response
